# Data as given in patent US6444705B1, “Angiogenesis inhibitors” (Santen Pharmaceutical Co., Ltd., priority 1998, dated 2002).
# Structures can show the parent of a compound that is named as a salt.
# Tested on: chick chorioallantonic membrane
# Assay: Inhibitory effect on angiogenesis in the chick chorioallantonic membrane
# Type: in vivo, chick (white leghorn)
# Conditions: pellet on embryo chorioallantonic membrane, cultured two days, rate = positive eggs/tested eggs x100
# Description: It was reported that effects of drugs on angiogenesis were evaluated using fertilized egg embryo chorioallantonic membrane as an in vivo angiogenesis evaluation model (Biochem. Biophys. Res. Commun., 174, 1070-1076 (1991)). Accordingly, effects of a cysteine derivative on the angiogenesis evaluation model were studied according to the assay described in the above-mentioned literature.
# 1. Methyl cellulose (0.1 g) is dissolved in sterile purified water (10 ml) to prepare a 1% solution of methyl cellulose.
# 2. A test compound is dissolved in ethanol/sterile purified water (1/1) to prepare a 24 μmol/ml solution.
# 3. The 24 μmol/ml solution of the test compound is diluted with ethanol/sterile purified water (1/1) to prepare 12 μmol/ml and 6 μmol/ml solutions of the test compound.
# 4. The solution (0.20 ml) of the test compound having each concentration is mixed with the 1% solution (0.20 ml) of methyl cellulose to prepare a mixed solution of the test compound.
# 5. […]
# Hatched eggs (white leghorn) of three days old after fertilization were put up by threes on a culture plate having six wells with their air phases upward and incubated in a CO2 incubator for 20 minutes (temperature: 37° C., humidity: 95%, CO2 concentration: 5%). […] Hatched eggs in which angiogenesis was not observed were defined as positive, and inhibition rates of angiogenesis were calculated by the following equation.
smiles,measurement,setting,value
"CC(C)(CS)C(=O)NC(CS)C(=O)NCCCCCCN (stereo in doubt) [N^1-(6-aminohexyl)-N^2-(2,2-dimethyl-3-mercaptopropionyl)-L-cysteinamide hydrochloride]",Inhibition rate of angiogenesis (%),dose 0.06 μmol/egg,80%
same,Inhibition rate of angiogenesis (%),dose 0.12 μmol/egg,93%
